These results are taken from ChEMBL document CHEMBL5614409, “Discovery of potent HIV-1 NNRTIs by CuAAC click-chemistry-based miniaturized synthesis, rapid screening and structure optimization” (Eur J Med Chem, 2024).

The structures appear in SMILES notation. Values after ≈ are worked out from the molar mass of the structure shown.

Data set [1] in a line: Aqueous solubility of compound at pH 7.4 incubated for 24 hrs under shaking condition by HPLC method. It is filed as physicochemical. The settings on record: buffer.
For data set [2], the system named is Human immunodeficiency virus 1. Briefly: Antiviral activity against HIV1 IIIB harboring Y188L mutant infected in MT4 cells assessed as fold increase in reduction of virus induced cytopathic effect incubated for 5 days by MTT method relative to A6N36. The format is functional. The settings on record: time 5 day.
Data set [3] has as its system Human immunodeficiency virus 1. Kind of data set: Antiviral activity against HIV1 IIIB harboring RES056 mutant infected in MT4 cells assessed as reduction in virus induced cytopathic effect incubated for 5 days by MTT method. The format is functional, organism-based. Particulars: Human immunodeficiency virus 1, IIIB, MT4, 120 h.
The nature of data set [4]: Aqueous solubility of compound at pH 7 incubated for 24 hrs under shaking condition by HPLC method. The format is physicochemical. Particulars: buffer.
The subject of data set [5] is Human immunodeficiency virus 1. Briefly: Antiviral activity against HIV1 IIIB harboring RES056 mutant infected in MT4 cells assessed as fold increase in reduction of virus induced cytopathic effect incubated for 5 days by MTT method relative to A6N36. It is filed as functional. The settings on record: time 5 day.
A short description of data set [6]: Aqueous solubility of compound at pH 2 incubated for 24 hrs under shaking condition by HPLC method. The format is physicochemical. The settings on record: buffer.
Data set [7] deals with Human immunodeficiency virus 1. Kind of data set: Antiviral activity against HIV1 IIIB harboring E138K mutant infected in MT4 cells assessed as reduction in virus induced cytopathic effect incubated for 5 days by MTT method. The settings on record: Human immunodeficiency virus 1, IIIB, MT4, 120 h. It is filed as functional, organism-based.
For data set [8], the system named is Human immunodeficiency virus 1. Briefly: Antiviral activity against HIV1 IIIB harboring Y188L mutant infected in MT4 cells assessed as reduction in virus induced cytopathic effect incubated for 5 days by MTT method. It is filed as functional, organism-based. The settings on record: Human immunodeficiency virus 1, IIIB, MT4, 120 h.
Data set [9] relates to Human immunodeficiency virus 1. Briefly: Antiviral activity against HIV1 IIIB harboring Y181C mutant infected in MT4 cells assessed as reduction in virus induced cytopathic effect incubated for 5 days by MTT method. The settings on record: Human immunodeficiency virus 1, IIIB, MT4, 120 h. It is filed as functional, organism-based.
Data set [10] can be described thus: Cytotoxicity against human MT4 cells assessed as reduction in cell viability incubated for 5 days by MTT method. The format is toxicity, cell-based. The settings on record: time 5 day.
The test system of data set [11] is Human immunodeficiency virus 1. Briefly: Antiviral activity against HIV1 IIIB harboring L100I mutant infected in MT4 cells assessed as reduction in virus induced cytopathic effect incubated for 5 days by MTT method. It is filed as functional, organism-based. The settings on record: Human immunodeficiency virus 1, IIIB, MT4, 120 h.
Data set [12] has as its target Human immunodeficiency virus type 1 reverse transcriptase (Human immunodeficiency virus 1, UniProt Q72547). Briefly: Inhibition of HIV-1 reverse transcriptase assessed as reduction in biotin-dUTP incorporation incubated for 2 hrs in presence of template and viral nucleotides by ELISA.
For data set [13], the system named is Human immunodeficiency virus 1. Kind of data set: Antiviral activity against HIV1 IIIB harboring F227L/V106A double mutant infected in MT4 cells assessed as fold increase in reduction of virus induced cytopathic effect incubated for 5 days by MTT method relative to A6N36. The format is functional. The settings on record: time 5 day.
Data set [14] relates to Human immunodeficiency virus 1. Briefly: Antiviral activity against HIV1 IIIB harboring K103 N mutant infected in MT4 cells assessed as reduction in virus induced cytopathic effect incubated for 5 days by MTT method. It is filed as functional, organism-based. The settings on record: Human immunodeficiency virus 1, IIIB, MT4, 120 h.
In data set [15] the test system is Human immunodeficiency virus 1. Kind of data set: Antiviral activity against HIV1 IIIB infected in MT4 cells assessed as reduction in virus induced cytopathic effect incubated for 5 days by MTT method. The format is functional, organism-based. The settings on record: Human immunodeficiency virus 1, IIIB, MT4, 120 h.
Data set [16] relates to Human immunodeficiency virus 1. Kind of data set: Antiviral activity against HIV1 IIIB harboring F227L/V106A double mutant infected in MT4 cells assessed as reduction in virus induced cytopathic effect incubated for 5 days by MTT method. The format is functional, organism-based. The settings on record: Human immunodeficiency virus 1, IIIB, MT4, 120 h.
The nature of data set [17]: Selectivity index, ratio of CC50 for human MT4 cells to EC50 for antiviral activity against HIV1 IIIB infected in MT4 cells. The format is toxicity, cell-based. Particulars: read-out: Ratio CC50/EC50.
A short description of data set [18]: Aqueous solubility of compound at pH 7.4. The settings on record: buffer.
Data set [19] is described as follows: Aqueous solubility of compound at pH 7. The settings on record: buffer.

Consider `CNC(=O)Cn1cc(CN2CCC(Nc3nc(Oc4c(C)cc(/C=C/C#N)cc4C)c4ccsc4n3)CC2)nn1`, for which the thermodynamic solubility at 24 h in data set [1] came out at 20.1 µg/mL (≈ 36 µM); in [4], 23.6 µg/mL (≈ 42.3 µM); in data set [6], 733 µg/mL (≈ 1310 µM). Moreover, the figures for the “fold change (FC)” value in data set [2], in [5] and in data set [13] were 3, 2 and 2, respectively. In addition, the EC50 in data set [3] came to 58 nM; in data set [7], 9 nM; in [8] it was 30 nM; in data set [9], 8 nM; in [11], 4 nM; in data set [14], 3 nM. The 50% effective concentration (EC50) in [15] stood at 5 nM; in [16], 28 nM. The CC50 at 120 h in [10] came to 18700 nM. Further, the IC50 in [12] was 134 nM. Also, the selectivity ratio in data set [17] came to 3990.

`Cc1cc(/C=C/C#N)cc(C)c1Nc1ccnc(Nc2ccc(C#N)cc2)n1` [RILPIVIRINE]: the solubility in [18] and in data set [19] was under 1 µg/mL in each case.

On to `Cc1cc(/C=C/C#N)cc(C)c1Oc1nc(NC2CCN(Cc3cn(CC(N)=O)nn3)CC2)nc2sccc12`, for which the values for the thermodynamic solubility at 24 h in data set [1], in data set [4] and in data set [6] were 20.1 µg/mL (≈ 37 µM), 22.5 µg/mL (≈ 41.4 µM) and 228 µg/mL (≈ 419 µM), respectively. The “fold change (FC)” value in data set [2] was 3. Besides, the EC50 is 89 nM in data set [3]; 14 nM in data set [7]; 39 nM in [8]; 17 nM in data set [9]; 6 nM in [11]; 5 nM in data set [14]. Besides, the EC50 turned out to be 4 nM in data set [15] and 51 nM in data set [16]. The 50% cytotoxic concentration (CC50) at 120 h in data set [10] is 62500 nM. The half-inhibitory concentration (IC50) in data set [12] was 118 nM. For the same compound, the selectivity ratio in data set [17] came out at 14500.

`Cc1cc(/C=C/C#N)cc(C)c1Oc1nc(NC2CCN(Cc3cn(CC(=O)NC4CCOCC4)nn3)CC2)nc2sccc12`: the values for the solubility (thermodynamic) at 24 h in data set [1], in data set [4] and in [6] were 23.1 µg/mL (≈ 36.8 µM), 22.5 µg/mL (≈ 35.8 µM) and 1610 µg/mL (≈ 2570 µM), respectively. Moreover, the “fold change (FC)” value in [2] is given as 3. Besides, the EC50 is 62 nM in data set [3]; 18 nM in data set [7]; 29 nM in data set [8]; 15 nM in data set [9]; 5 nM in data set [11]; 5 nM in data set [14]. Besides, the figures for the EC50 in data set [15] and in data set [16] were 3 nM and 47 nM, respectively. Besides, in data set [10], the CC50 at 120 h is 16000 nM. Moreover, in [12], the half-inhibitory concentration (IC50) came to 220 nM. Also, the selectivity ratio in data set [17] worked out at 4980.
